Measured values taken from ChEMBL document CHEMBL1201862, “PubChem BioAssay data set” (2004).
Calls of active or inactive are those of the source.

Key:
[1] = biological target: T1, Calpain-2 catalytic subunit (Sus scrofa, UniProt P43367); test: pig calpain II inhibitor potency, dose response, biochemical, fluorogenic peptide substrate (AID 1420); assay type: functional
T1 sequence (P43367 whole entry): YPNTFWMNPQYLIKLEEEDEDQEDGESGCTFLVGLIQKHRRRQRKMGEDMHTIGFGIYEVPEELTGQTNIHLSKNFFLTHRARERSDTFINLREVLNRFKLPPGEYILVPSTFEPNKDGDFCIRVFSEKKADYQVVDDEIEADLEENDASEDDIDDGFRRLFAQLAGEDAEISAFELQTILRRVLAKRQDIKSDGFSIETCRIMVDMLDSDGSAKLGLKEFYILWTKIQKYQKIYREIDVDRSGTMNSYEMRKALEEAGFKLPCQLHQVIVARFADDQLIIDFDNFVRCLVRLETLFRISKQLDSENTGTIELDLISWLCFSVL

Galanin receptor type 3 = biological target: T2, Galanin receptor type 3 (Homo sapiens, UniProt O60755); test: Fluorescence-based cell-based primary high throughput dose response assay to identify antagonists of the Galanin Receptor 3 (GalR3).; assay type: functional
T2 sequence (O60755 whole entry): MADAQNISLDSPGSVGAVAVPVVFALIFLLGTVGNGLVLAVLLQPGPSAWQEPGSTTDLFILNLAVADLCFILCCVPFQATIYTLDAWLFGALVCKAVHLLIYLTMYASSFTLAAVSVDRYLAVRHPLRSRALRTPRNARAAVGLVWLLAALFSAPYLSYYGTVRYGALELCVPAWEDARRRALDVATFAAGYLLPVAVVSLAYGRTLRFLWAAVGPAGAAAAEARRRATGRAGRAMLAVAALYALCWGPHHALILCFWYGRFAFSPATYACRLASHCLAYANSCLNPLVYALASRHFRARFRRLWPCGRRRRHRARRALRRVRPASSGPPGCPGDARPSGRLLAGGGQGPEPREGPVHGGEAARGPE

cells [2] = assay type: functional, cell-based; details: HEK-CNG
Major prion protein = Major prion protein (Homo sapiens, UniProt P04156); assay type: functional, cell-based
cells [3] = test: cells
[4] = biological target: T3, Endoribonuclease toxin MazF (Escherichia coli K-12, UniProt P0AE70); test: MazF toxin RNase activators, dose response, biochemical, fluorescence, single-stranded RNA substrate, uHTS hits (AID 588481); assay type: functional
T3 sequence (P0AE70 whole entry): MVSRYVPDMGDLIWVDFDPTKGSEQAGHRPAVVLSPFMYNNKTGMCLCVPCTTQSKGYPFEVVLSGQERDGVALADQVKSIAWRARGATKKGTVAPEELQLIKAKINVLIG

[5] = inhibitors of HIV Env-driven cell fusion, dose response, cherry-pick (AID 652057); assay type: functional, cell-based
[6] = CEM21 lymphoblast cell cytotoxicity, dose response, cytotoxicity control for viral fusion inhibitor project, CellTiter-Glo luminescence, cherry-picked (AID 652042); assay type: functional, cell-based;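 also: potency for signal decrease meaning cytotoxicity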
[7] = ZM109 Env clade C HIV-1 fusion inhibitors, dose response, HeLa effector, CEM target cells, luciferase, cherry-pick (AID 652058); assay type: functional, cell-based
[8] = off-target signal loss in HeLa-CEM21 co-culture – HeLa F-luc CTL cells, cherry-picked, counter-screen for HIV-1 Env fusion inhibitor project, dose response (AID 652040); assay type: functional, cell-based;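 also: potency for signal decrease marking cytotoxic or nonspecific inhibition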
Beta-galactosidase = Beta-galactosidase (Escherichia coli, UniProt Q8VNN2); test: PubChem AID 485352; assay type: functional
[9] = biological target: T4, Type-1 angiotensin II receptor (Homo sapiens, UniProt P30556); test: AT1 receptor antagonists, dose response, selectivity assay for APJ receptor antagonist project, cell-based, uHTS hits (AID 463214); assay type: functional;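 also: antagonist potency against angiotensin II stimulated AT1 response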
T4 sequence (P30556 whole entry): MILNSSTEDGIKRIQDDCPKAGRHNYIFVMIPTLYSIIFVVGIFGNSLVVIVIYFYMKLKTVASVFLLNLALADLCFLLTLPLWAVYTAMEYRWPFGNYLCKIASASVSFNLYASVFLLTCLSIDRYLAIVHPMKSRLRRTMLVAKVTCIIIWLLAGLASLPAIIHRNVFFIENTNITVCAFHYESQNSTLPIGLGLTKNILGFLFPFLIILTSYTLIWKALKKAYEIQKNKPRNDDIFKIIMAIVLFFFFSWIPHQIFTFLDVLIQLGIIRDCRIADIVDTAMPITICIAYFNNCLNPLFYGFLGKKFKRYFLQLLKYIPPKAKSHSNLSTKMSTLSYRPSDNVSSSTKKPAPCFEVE

[10] = microbe, parasite or virus in culture; assay type: functional; details: Mycobacterium tuberculosis
[11] = biological target: Delta-type opioid receptor (Homo sapiens, UniProt P41143); test: Counterscreen for agonists of heterodimerization of the mu 1 (OPRM1) and delta 1 (OPRD1) opioid receptors: Luminescence-based cell-based high throughput dose response assay to identify agonists of OPRD1 homodimerization. [Related pubchem assays (depositor defined):AID504326, AID504355, AID504692, AID504904, AID504905]; assay type: functional
Mu-type opioid receptor = Mu-type opioid receptor (Homo sapiens, UniProt P35372); test: Counterscreen for agonists of heterodimerization of the mu 1 (OPRM1) and delta 1 (OPRD1) opioid receptors: Luminescence-based cell-based high throughput dose response assay to identify agonists of OPRM1 homodimerization.; assay type: functional;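 also: U2OS cells expressing OPRM1 and beta-arrestin as split beta-galactosidase partners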
[12] = biological target: 5-hydroxytryptamine receptor 5A (Homo sapiens, UniProt P47898); test: Counterscreen for agonists of OPRM1-OPRD1 heterodimerization: luminescence-based cell-based high throughput dose response assay to identify agonists of 5-hydroxytryptamine (serotonin) 5A receptor (HTR5A). [Related pubchem assays (depositor defined):AID504326, AID504355, AID504692, AID504904, AID504905]; assay type: functional
[13] = inhibitors of intracellular T. cruzi replication, confirmation, NIH3T3 host cells, beta-gal luminescence (AID 2044); assay type: functional, cell-based;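 also: intracellular parasites grown in NIH/3T3 mouse fibroblasts as host cells; luminescent beta-galactosidase reporter signal from transgenic T. cruzi replicating inside host cells; inhibitors lower the luminescence signal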
[14] = cytotoxicity toward NIH3T3 fibroblasts, dose response, counter-screen, cell-based, ATP luminescence, mouse fibroblasts (AID 2010); assay type: functional;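 also: cells exposed to compound for about 90 hours before reading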
[15] = biological target: Nuclear receptor subfamily 5 group A member 2 (Homo sapiens, UniProt O00482); assay type: functional, cell-based;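 also: HEK293T cells transfected with LRH-1 and a StAR promoter luciferase reporter; potency for inhibitors that lower LRH-1 driven reporter light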
Steroidogenic factor 1 = Steroidogenic factor 1 (Homo sapiens, UniProt Q13285); test: Counterscreen for inverse agonists of the liver receptor homolog-1 (LRH-1; NR5A2): Luminescence-based cell-based high throughput dose response assay to identify inverse agonists of the Steroidogenic Factor 1 Nuclear Receptor (SF1; NR5A1).; assay type: functional
[16] = StAR promoter reporter inhibition counter-screen, dose response, counter-screen for LRH-1 inverse agonist project, cell-based, luminescence, luciferase reporter (AID 651969); assay type: functional
Paired box protein Pax-8 = Paired box protein Pax-8 (Homo sapiens, UniProt Q06710); test: inhibitors of PAX8-driven TPO luciferase reporter, dose response, RMG-I cells, cherry-pick (AID 687027); assay type: functional, cell-based;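 also: luciferase reporter driven by Pax8 target thyroperoxidase promoter measured by SteadyGlo luminescence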
[17] = NIH:OVCAR-3 ovarian cancer cell cytotoxicity, dose response, PAX8 inhibitor project, plate reader, dry powder samples (AID 743044); assay type: functional, cell-based
[18] = cytotoxicity in OVCAR8 ovarian cancer cells, dose response, PAX8 project, cell-based, plate reader, dry powder samples (AID 743197); assay type: functional; details: OVCAR-8

**Q.** For `C=CCNC(=S)N/N=C/c1ccc(C(C)(C)C)cc1`, which IC50 [1] is on record?
**A.** 10.9 µM (not active)

**Q.** With `CCOC(=O)Cc1csc(NC(=O)c2cc(=O)c3ccccc3o2)n1` as the compound, how does the IC50 (Galanin receptor type 3) read?
**A.** 3.82 µM (active)

**Q.** What about the EC50 (cells [2]) of the same compound?
**A.** > 29.9 µM (inactive)

**Q.** With `Cc1cc(C)nc(NS(=O)(=O)c2ccc(NC(=O)CSc3nc(O)c(C#N)c(-c4ccccc4)n3)cc2)n1` as the compound, how does the IC50 (Major prion protein) read?
**A.** 6.28 µM (active)

**Q.** What about the IC50 (cells [3]) of the same compound?
**A.** > 138 µM (inactive)

**Q.** For `CC1CC[C+]([N-]NS(=O)(=O)c2ccc([N+](=O)[O-])cc2)CC1`, which EC50 [4] is on record?
**A.** > 99 µM (inactive)

**Q.** With `Cc1ccc(S(=O)(=O)N(C)C)cc1NC(=O)C(C)N(C)CCOc1ccc(Cl)cc1` (stereo unspecified) as the compound, how does the AC50 [5] read?
**A.** 18.7 µM (active)

**Q.** And the AC50 [6]?
**A.** 57 µM (active)

**Q.** What about the AC50 [7] of the same compound?
**A.** 1.85 µM (active)

**Q.** And the AC50 [8]?
**A.** 39.3 µM (active)

**Q.** Which EC50 (Beta-galactosidase) does the source give for `COc1ccc(S(=O)(=O)NNc2nc(C)cc(C)n2)cc1[N+](=O)[O-]` here?
**A.** > 40 µM (inactive)

**Q.** And the IC50 [9]?
**A.** 36.7 µM (not active)

**Q.** Which IC50 (Major prion protein) does the source give for `CCOC(=O)CSc1ccc2ccccc2n1` here?
**A.** 9.54 µM (active)

**Q.** What about the IC50 (cells [3]) of the same compound?
**A.** > 138 µM (inactive)

**Q.** With `O=C(Cn1nnc2ccccc21)OCC(=O)c1ccc(Cl)c(Cl)c1` as the compound, how does the EC50 (Beta-galactosidase) read?
**A.** > 40 µM (inactive)

**Q.** And the IC50 [9]?
**A.** 13.3 µM (active)

**Q.** Which results are given for `COCCN(C(=O)C1CC(=O)N(Cc2ccccc2)C1)c1nc(-c2ccc([N+](=O)[O-])cc2)cs1` (stereo unspecified)?
**A.** CC50 [10]: > 40 µM (active); EC50 [11]: > 92.5 µM (inactive); EC50 (Mu-type opioid receptor): 22.9 µM (inactive); EC50 [12]: > 92.5 µM (inactive)

**Q.** Which EC50 [13] does the source give for `Cc1cc(C)c2sc(NC(=O)c3ccc([N+](=O)[O-])o3)nc2c1` here?
**A.** 0.642 µM (active)

**Q.** And the EC50 [14]?
**A.** > 60 µM (not active)

**Q.** And the IC50 [15]?
**A.** 35.8 µM (inactive)

**Q.** What about the IC50 (Steroidogenic factor 1) of the same compound?
**A.** 1.89 µM (active)

**Q.** What about the IC50 [16] of the same compound?
**A.** 35.8 µM (inactive)

**Q.** With `C[C@H](CO)N1C[C@H](C)[C@H](CN(C)S(=O)(=O)c2ccc(Cl)cc2)OCCCC[C@H](C)Oc2ccc(NS(=O)(=O)c3ccc(Cl)cc3)cc2C1=O` as the compound, how does the AC50 (Paired box protein Pax-8) read?
**A.** 5.86 µM (active)

**Q.** And the AC50 [17]?
**A.** 34.3 µM (active)

**Q.** What about the AC50 [18] of the same compound?
**A.** 58.9 µM (active)

**Q.** For `Cc1ccc(NC(=O)COC(=O)C(NS(=O)(=O)c2ccc(Cl)cc2)C(C)O)c(Br)c1` (stereo unspecified), which IC50 [15] is on record?
**A.** 35.9 µM (inactive)

**Q.** And the IC50 (Steroidogenic factor 1)?
**A.** 1.33 µM (active)

**Q.** What about the IC50 [16] of the same compound?
**A.** 35.9 µM (inactive)
